Starred links: 1 amine or outer side, 2 acyl side, 3 side chain; linkers in the order of their positions; H or OH if unused. Positions of bridges follow the written chain, without caps; N, C: chain ends. Non-standard residues stand in square brackets, D forms with d. Residues, ends and D or L forms follow the SMILES beside them. oXylylene = c1ccc(C[*:2])c(C[*:1])c1; Pra = C#CC[C@H](N)C(=O)O
Legend:
Type in all cases: in vitro ADME
[1] = Parallel artificial membrane permeability assay (PAMPA), egg lecithin in dodecane; details: for Permeability class of control alkynes: control alkynes' permeabilities measured previously (ref 38) or via PAMPA (SI Table S1)
Method: A modified PAMPA was used for compound permeability measurements and was performed by Pharmaron. Briefly, alkyne stock solution (1 mM in DMSO) was diluted (50 μM final in PBS, pH 7.4). The lipid solution (1.8% w/v egg lecithin in dodecane, 5 μL spotting volume) was added to each acceptor well of the multiscreen-IP filter plate. PBS (300 μL) was added to all wells of the acceptor plate, and diluted alkyne stock (300 μL) was added to the wells of the donor plate in triplicate. The plate was assembled and incubated (16 h, 37 °C). An aliquot of donor well sample (2.5 μL) was diluted in PBS (47.5 μL), and an aliquot of the acceptor well (50 μL) was transferred to a 96-well analysis plate. Internal standard (100 nM alprazolam, 200 nM caffeine, 200 nM diclofenac in 100% MeOH) was added to all samples. Samples were vortexed and centrifuged (20 min, 3220g), then analyzed by LC-MS/MS.
The effective permeability (Pe) was calculated as [drawing 1] 1 [drawing 2] 2 where VD is the donor compartment volume (0.3 mL), VA is the acceptor compartment volume (0.3 mL), A is the filter area (0.24 cm^2), and t is the time (16 h).

[2] = Microplate fluorogenic CuAAC liposomal permeation assay (CF-N3-loaded SUVs); details: for Permeation in liposomal assay: reaction with liposomal CF-N3 (in words): real-time fluorogenic CuAAC
Method: DOPC or DOPG (10 mg/mL, 500 μL) were pipetted into a scintillation vial (20 mL), or DOPC (10 mg/mL, 400 μL) and POPC (10 mg/mL, 100 μL) were pipetted into a scintillation vial (20 mL). Samples were dried under argon then evaporatively dried in a vacuum desiccator (16 h). Degassed PBS buffer was combined with CF-N3 probe (1, 4, or 20 μM final) and ascorbic acid (AA, 10 mM). Lipid film was resuspended using degassed probe/AA/PBS buffer solution (1 mL), and the vial was incubated on a hot plate (15 min, 37 °C) with gentle vortexing (every 5 min). Lipid suspension was sonicated (1 min, Branson 3510 DTH ultrasonic cleaner) followed by rest (1 min), repeating 9 additional times. Liposomes were generated by extrusion (11 passages, 100 nm polycarbonate membrane, Mini-Extruder, Avanti Polar Lipids). Liposome solution was loaded into dialysis cassettes (10K MWCO, 3 mL Slide-A-Lyzer) and incubated in PBS buffer (1 L, 16 h, 4 °C). Liposome size distributions and stability were analyzed by dynamic light scattering (DLS, Zetasizer Nano ZS, Malvern Panalytical, United Kingdom).
The same protocol was followed to produce and characterize liposomes with other lipid compositions. DOPC (10 mg/mL, 400 μL), POPC (10 mg/mL, 100 μL), and cholesterol (5 mg/mL, 50/100 μL for 10%/20% mole of cholesterol, respectively) were combined, dried, and rehydrated with probe solution in scintillation vials. Brain polar lipid extract (25 mg/mL, 200 μL) or E. coli polar lipid extract (25 mg/mL, 200 μL) were dried and rehydrated with probe solution in scintillation vials.
CuSO4 (4 mg) was dissolved in DI H2O (500 μL, 50 mM), L-ascorbic acid (8.8 mg) was dissolved in PBS (500 μL, 100 mM), TBTA (2.7 mg) was dissolved in DMSO (509 μL, 10 mM), and mPEG17/mPEG8/mPEG4/PEG4s/propargyl amine/Cyc1–4 stock solutions (50 mM, with the purity > 95% by HPLC analysis) were prepared in DMSO, and CF-N3 was dissolved in DMSO (2 mM). Fluorogenic CuAAC reaction premixture was prepared by combining CuSO4 (10 μL) and TBTA (8 μL) in PBS (982 μL). Alkyne analytes were diluted (0.1 mM in CuAAC reaction premixture +2% DMSO). Free probe solution was prepared with CF-N3 (4 μM) and L-ascorbic acid (10 mM) in PBS buffer. Alkyne analyte in CuAAC premixture (5 μL) or CuAAC premixture +2% DMSO (5 μL) blank sample was combined with liposome (5 μL) or free probe solution (5 μL) in microtiter plate wells (384-well, Greiner, Thermo Scientific). Transient assay fluorescence (λex/λem = 488/530 nm) was detected using a multimode plate reader (CLARIOstar, BMG). Fluorescence fold gain was calculated by dividing the sample fluorescence by blank fluorescence. Initial velocities (V0) were obtained by linear regression analysis of the fluorescence fold gain after the initial lag period.
Assays were assembles as described above, combining liposomal probe (5 μL; 4 μ M CF-N3, 10 mM ascorbic acid, E. coli lipid SUV) with alkyne sample (5 μL) but with varying concentrations of mPEG4, mPEG8, mPEG17, and PEG4s (0.0001/0.001/0.005/0.01/0.05/0.1/0.5/1/5 mM) or Cyc1–4 (0.0001/0.001/0.005/0.01/0.05/0.1/0.5 mM). Broken liposomal V0 was obtained by combining liposomal probe (5 μL) with Triton X-100 solution (0.42 μL, 10% w/v), then adding the highest concentration sample for each alkyne (5 μL; 0.5 mM Cyc1–4 or 5 mM PEG samples). Transient assay fluorescence (λex/λem = 488/530 nm) was detected using a multimode plate reader (CLARIOstar). Each [alkyne] V0 was divided by the corresponding broken liposome maximum [alkyne] V0,broken. These normalized data were fit to a sigmoid to determine the [alkyne] at which V0/V0,broken was 50% maximum (PC50).

[3] = Microfluidic droplet-scale liposomal permeation assay of photocleaved control beads; details: photocleaved from control beads on-chip by UV, E. coli polar lipid SUVs, 9% dextran
Method: Microfluidic droplet-based screening was performed in a UV-free room as previously described.[37],[47] Briefly, perfluorous oil phase (Novec 7500) with stabilizer (4% Pico-Surf) was loaded into a syringe (1 mL, BD Tuberculin, BD Medical, Franklin Lakes, NJ) fitted with blunt-end needle (30 gauge QuantX, Fisnar, Germantown, WI) and connected to the microfluidic device OIL1 inlet via Tygon microbore tubing (0.01” I.D. × 0.03” O.D. × I.D., United States Plastic Corp.). Aqueous inputs (AQ1 and AQ2, see below) were loaded into the syringes and connected to AQ inlets of the microfluidic device. Novec 7500 was loaded into syringes (10 mL) and similarly connected to the device via Tygon microbore tubing as spacing oil (OIL2) and flow focusing oil (OIL3). The incubation channel was primed with Novec 7500 by filling from the OIL2 and OIL3 inputs before initiating flows from OIL1 and AQ inlets. OIL and AQ flows were driven by syringe pumps (Legato 101, KD Scientific, Holliston, MA): AQ1 (400 nL/min) AQ2 (400 nL/min), OIL1 (500 nL/min), OIL2 (16 μ L/min), and OIL3 (6 μL/min). […]
Fluorescence data were acquired using a custom confocal laser-induced fluorescence detection system. Droplets were detected based on internal standard (cTMR) signal in PMT 2 as previously described.[36] CF-N3 probe fluorescence was detected in PMT 1. […] Once a droplet was detected, the average PMT 1 signal was calculated. […]

[4] = multiple SUV lipid formulations

Row | Compound | Permeability class of control alkynes [1] | Permeation in liposomal permeation assay (in words) [2, 4] | also measured
1 | C#CCOCCOCCOCCOCCS(=O)(=O)O [PEG4s, propargyl-PEG4-sulfonic acid] | impermeable | – | –
2 | C#CC[C@H](NC(=O)[C@H](Cc1c[nH]cn1)NC(=O)[C@H](Cc1c[nH]c2ccccc12)NC(=O)[C@@H](NC(=O)[C@H](Cc1c[nH]cn1)NC(=O)[C@H](Cc1ccccc1)NC(=O)[C@H]1CSCc2ccccc2CSC[C@@H](NC(=O)[C@@H](N)C(C)C)C(=O)N[C@@H](CC(N)=O)C(=O)N[C@@H](C)C(=O)N1)[C@@H](C)CC)C(N)=O [DD5o] (H-V[dC]NA[dC]FHIWH[Pra]-NH2; linker 2-5 via oXylylene) | – | – | Permeation in liposomal permeation assay (in words) ([2]; DOPG vesicles, PPA and PEG4s as controls (SI Figure S5)): permeable
3 | C#CCOCCOCCOCCOCCOCCOCCOCCOC [mPEG8, m-PEG8-propargyl] | – | readily permeated | –
4 | C#CCOCCOCCOCCOCCOCCOCCOCCOCCOCCOCCOCCOCCOCCOCCOCCOCCOC [mPEG17, propargyl-PEG17-methane] | impermeable | largely impermeable | Papp at 16 h, 50 μM ([1]; egg lecithin PAMPA, 50 μM, PBS pH 7.4, 16 h, 37 °C, read-out: PAMPA Pe): > 0.004 ×10⁻⁶ cm/s; Permeation in liposomal assay: reaction with liposomal CF-N3 (in words) ([2]; CF-N3-loaded DOPC-POPC SUVs): undetectable
5 | C#CCNC(=O)C(N)C(C)C (stereo not drawn) [PPA–V, valine-N-propargylamide] | – | – | Permeation in droplet-scale liposomal permeation assay (in words) [3]: permeable
6 | C#CCOCCOCCOCCOC [mPEG4, m-PEG4-propargyl] | – | readily permeated | –
7 | C#CCN [PPA, propargylamine] | permeable | – | Lag before reaching steady V0 in reaction with liposomal CF-N3 ([2]; CF-N3-loaded DOPC-POPC SUVs): ~10 min; Permeation in liposomal assay: reaction with liposomal CF-N3 (in words) ([2]; CF-N3-loaded DOPC-POPC SUVs): reacted

Reference: PMC10184116, “Liposomal Permeation Assay for Droplet-Scale Pharmacokinetic Screening” (Journal of Medicinal Chemistry, 2023)
